Measured values: patent US20260137745A1, “QUERCETAGETIN ENRICHED MARIGOLD EXTRACTS, COMPOSITIONS, METHODS OF PREPARATION AND USE THEREOF” (AVT NATURAL PRODUCTS LTD., priority 2022, published 2026)
≈ marks a conversion by molar mass, not a printed value. Like-named read-outs stand apart in the source and are kept apart here.

Assays:
[1] = Oxygen Radical Absorbance Capacity (ORAC) assay; format: biochemical; details: higher is better
Procedure: The Oxygen Radical Absorbance Capacity (ORAC) assay is a method that measures the antioxidant capacity of a substance. The ORAC assay measures a fluorescent signal from a probe that is quenched in the presence of Reactive Oxygen Species (ROS). […] In accordance with this protocol, ORAC assay was evaluated (using known protocols) for the composition comprising QG40 extract; the composition comprising QG90 extract and compared the same with composition comprising quercetin. […] Higher the ORAC value, means better performance by the composition.

[2] = DPPH Antioxidant Assay; format: biochemical; details: lower is better
Procedure: DPPH assay is considered a valid accurate and easy method to evaluate radical scavenging activity of antioxidants. DPPH [1,1-diphenyl-2-picryl hydrazyl] is a stable free radical with purple color. Antioxidants reduce DPPH to 1,1-diphenyl-2-picryl hydrazine, a color less compound which is measured at an absorbance of […]. This is an accepted mechanism for screening the antioxidant activity of plant extracts in a concentration dependent manner. Accordingly, the DPPH Antioxidant Assay was conducted as per known protocols for the compositions comprising QG40, and compositions comprising QG90, and Quercetin.

[3] = tested on: Keratinocyte (HACAT) cells; experiment: Cellular ROS Assay; format: cell-based; details: Homo sapiens, DCF-DA probe, flow cytometry, read-out: ROS inhibition IC50
Procedure: The Cellular ROS Assay is a cell-based assay designed for measuring Reactive Oxygen Species activity within a cell using the cell-permeable fluorogenic probe 2′. 7′-Di chloro dihydro fluorescein diacetate (DCF-DA). […] ROS induces the modification of carboxy-H2DCFDA that fluoresces green as detected by flow cytometry. ROS inhibition was evaluated for the composition with QG40 extract; the composition with QG90 extract and composition with quercetin.

[4] = tested on: Human Adult Epidermal Melanocytes (HAEM); experiment: Cellular melanin inhibition assay; format: cell-based; details: Melanocyte, read-out: melanin inhibition IC50
Procedure: Cellular melanin inhibition assay is a cell-based assay designed for measuring Melanin inhibition in Human Adult Epidermal Melanocytes (HAEM). Darkly pigmented melanocytes were treated with test samples and incubated for 72 hrs. Post incubation, melanin was extracted and measured at an absorbance of 490 nm to evaluate the non-cytotoxic concentration of test sample (i.e. composition with QG40 extract; the composition with QG90 extract and composition with quercetin) for melanin inhibition.

O.O.O=c1c(O)c(-c2ccc(O)c(O)c2)oc2cc(O)cc(O)c12 [Composition having Quercetin, Quercetin dihydrate]
ORAC value [1]: 18.69 m1\4 TE/g
DPPH Scavenging activity (IC50) [2]: 6.27 µg/mL
IC50 [3]: 16.5 µg/mL
IC50 ([4]; 72 h): 9.62 µg/mL

O=c1cc(CO)occ1O [Kojic acid]
IC50 ([4]; darkly pigmented melanocytes, 72 hrs incubation): 25 µg/mL (≈ 176 µM)
